Tested on: SD-strain rats
Assay: Single dose toxicity test
Type: in vivo
Details: intravenous single dose 75 to 600 mg/kg, even at 600 mg/kg, 5 males and 5 females
Experimental: 5-Methyloxaluric acid was intravenously administered to SD-strain rats (6 weeks age, 5 males and 5 females) at the dose of 75 to 600 mg/kg.

CNC(=O)NC(=O)C(=O)O [5-Methyloxaluric acid, 5-methyloxaluric acid]
death: no death

Source: US20050245577A1, “Drug for kidney failure containing oxaluric acid derivative” (priority 2002, published 2005)
